Results taken from the supplement of paper PMC10307832.

Columns and labels:
Assay in all cases: relative viability (nuclei count vs DMSO), 5 days (fraction); higher = more cells survive
Ponatinib + Navitoclax = compound: Cc1ccc(C(=O)Nc2ccc(CN3CCN(C)CC3)c(C(F)(F)F)c2)cc1C#Cc1cnc2cccnn12 [Ponatinib] + CC1(C)CCC(c2ccc(Cl)cc2)=C(CN2CCN(c3ccc(C(=O)NS(=O)(=O)c4ccc(N[C@H](CCN5CCOCC5)CSc5ccccc5)c(S(=O)(=O)C(F)(F)F)c4)cc3)CC2)C1 [Navitoclax] (partner 0.5 µM)
Method in brief: (§1)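 One day after seeding in 1536-well plates, lung cancer cell lines were dosed by pin tool. Dosing was either single-drug or a fixed anchor-drug dose plus five library-drug doses (not always all listed) in √10 steps. After 5 days, nuclei were stained in one fix-and-stain step and counted on 4× images, and relative viability is the nuclei count of treated wells over that of vehicle wells, given as the median of duplicate plates.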

Pazopanib + Phenformin = compound: Cc1ccc(Nc2nccc(N(C)c3ccc4c(C)n(C)nc4c3)n2)cc1S(N)(=O)=O [Pazopanib] + N=C(N)NC(=N)NCCc1ccccc1 [Phenformin] (partner 250 µM)
Method in brief: as §1

Ponatinib = compound: Cc1ccc(C(=O)Nc2ccc(CN3CCN(C)CC3)c(C(F)(F)F)c2)cc1C#Cc1cnc2cccnn12 [Ponatinib]
Method in brief: (§2)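 After an overnight hold at 37 °C, lung cancer cell lines in 1536-well plates were pinned with five library-drug doses (not always all listed), each √10 from the next, on vehicle-anchored plates. The cells stayed 5 days without fresh medium, then a one-step fix, permeabilisation and Hoechst stain preceded 4× imaging and MetaXpress nuclear counts. A plate passed only with control CV under 25% and at least one doubling. Viability is the median, over plates, of treated-well nuclei relative to vehicle-well nuclei.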

Pazopanib = compound: Cc1ccc(Nc2nccc(N(C)c3ccc4c(C)n(C)nc4c3)n2)cc1S(N)(=O)=O [Pazopanib]
Method in brief: as §2

Cell Line | relative viability (Ponatinib + Navitoclax; first compound 0.002 µM) | relative viability (Ponatinib + Navitoclax; first compound 0.006325 µM) | relative viability (Ponatinib + Navitoclax; first compound 0.06325 µM) | relative viability (Ponatinib + Navitoclax; first compound 0.2 µM) | relative viability (Pazopanib + Phenformin; first compound 0.01 µM) | relative viability (Pazopanib + Phenformin; first compound 0.03162 µM) | relative viability (Pazopanib + Phenformin; first compound 0.1 µM) | relative viability (Pazopanib + Phenformin; first compound 0.3162 µM) | relative viability (Pazopanib + Phenformin; first compound 1 µM) | relative viability (Ponatinib; 0.002 µM) | relative viability (Ponatinib; 0.006325 µM) | relative viability (Ponatinib; 0.06325 µM) | relative viability (Ponatinib; 0.2 µM) | relative viability (Pazopanib; 0.01 µM) | relative viability (Pazopanib; 0.03162 µM) | relative viability (Pazopanib; 0.1 µM) | relative viability (Pazopanib; 0.3162 µM) | relative viability (Pazopanib; 1 µM)
NCI-H322M | 1.2 | 1.15 | 1.3 | 0.907 | 0.844 | 0.866 | 0.779 | 0.854 | 0.791 | 0.96 | 0.983 | 0.953 | 0.853 | 0.906 | 0.996 | 0.92 | 0.967 | 1.03
HCC-827 | 1.02 | 0.971 | 1.06 | 0.983 | 0.46 | 0.466 | 0.374 | 0.426 | 0.414 | 0.983 | 1.03 | 1.07 | 1.03 | 1.11 | 1.06 | 1.04 | 1.07 | 1.04
SW 1573 | 1.02 | 0.989 | 1.03 | 0.901 | 0.406 | 0.36 | 0.471 | 0.437 | 0.509 | 0.961 | 0.955 | 1.06 | 0.897 | 0.948 | 1.02 | 1.07 | 1.2 | 1.13
NCI-H1975 | 1.18 | 1.01 | 1.2 | 0.915 | 0.399 | 0.437 | 0.445 | 0.471 | 0.502 | 0.831 | 0.918 | 0.948 | 0.844 | 0.889 | 0.895 | 0.993 | 0.944 | 1.03
NCI-H1651 | 1.01 | 1.06 | 1.25 | 1.06 | 0.359 | 0.351 | 0.343 | 0.373 | 0.379 | 0.982 | 1.02 | 1.08 | 0.929 | 0.917 | 1 | 1.01 | 0.956 | 1.01
NCI-H460 | 1.04 | 1.05 | 1.24 | 1.06 | 0.578 | 0.546 | 0.525 | 0.548 | 0.562 | 0.943 | 0.958 | 0.969 | 0.985 | 0.966 | 1 | 1.04 | 1.01 | 1.05
LCLC-97TM1 |  | 0.645 |  | 0.385 | 0.242 | 0.419 | 0.389 | 0.43 | 0.452 | 0.925 | 0.996 | 0.961 | 0.892 |  | 1 | 0.912 | 1.02 | 1.04
NCI-H838 | 1.1 | 1.21 | 1.19 | 0.979 | 0.548 | 0.648 | 0.587 | 0.647 | 0.753 | 0.95 | 1.01 | 0.994 | 0.793 | 0.918 | 1.01 | 0.996 | 1.05 | 1.14
NCI-H1355 | 0.984 | 1.08 | 1.17 | 1.08 | 0.42 | 0.481 | 0.406 | 0.455 | 0.461 | 0.923 | 1.02 | 1.11 | 1 | 0.753 | 0.952 | 0.95 | 1 | 1.06
HOP-62 | 0.943 | 0.984 | 1.01 | 0.817 | 0.654 | 0.627 | 0.734 | 0.673 | 0.665 | 0.921 | 0.86 | 0.912 | 0.857 | 0.963 | 1 | 1.02 | 1.07 | 0.958
NCI-H2085 | 1.1 | 1.16 | 1.28 | 1.16 | 0.624 | 0.835 | 0.683 | 0.694 | 0.833 | 1.01 | 0.997 | 1.19 | 1.06 | 0.973 | 1.04 | 0.966 | 1.01 | 1.02
